# Assay results: patent publication US6664231B1, “Anti-fungal peptides” (priority 1993, dated 2003)
# Where two headings read alike, the source gives them in different places. Square brackets hold non-standard residues; d marks the D form. Ends that are not written are not given here. Peptide text beside a SMILES is read from it. * marks the point of attachment. Phe(4-NH2) = Nc1ccc(C[C@H](N)C(=O)O)cc1; pGlu = O=C1CC[C@@H](C(=O)O)N1; Octanoyl = CCCCCCCC(=O)*; Dab = NCC[C@H](N)C(=O)O
# Columns and labels:
# [1] = system: C. albicans (CA-1, Strain SLU-1); assay: Radial diffusion assay; type: cell-based, Candida albicans; settings: pmoles of peptide added to well to achieve a 30 mm^2 zone, PROBIT analysis, crude or purified (P′) peptide
# How it was run: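 Peptides, serially diluted 2-fold in D-PBS (top ~1 mg/mL), diffused 3 h at 37° C into pH 7.4 phosphate-buffered agarose seeded with 1×10^6 CFU/mL yeast, before overnight growth under a 6% Sabouraud overlayer. Net inhibition zones measured after Coomassie staining; PROBIT fit of log pmol vs area gave pmol for 30 mm^2.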
# [2] = Serum stability, anti-fungal activity after serum incubation by radial diffusion bioassay; type: in vitro ADME, rat or human serum; settings: Activity in Serum t ½ (hr.)
# Method: For these serum stability experiments, peptides were prepared by solid phase peptide sythesis and purified to 94% or greater purity as described in Example 1. Blood was collected from metaphane anesthesized rats by aortic bleed into Vacutainer™ tubes and allowed to clot at room temperature for approximately 30 minutes, then centrifuged at 3000 rpm (about 1000×g) for 10 minutes at room temperature and the serum aspirated. In addition, frozen human serum (North American Biologics, Inc., Miami, Fla., cat. no. 2140, lot no. 94115) was thawed at room temperature and filtered through a 0.45 μm membrane before use.
# A 1 mg/mL solution of an exemplary XMP peptide to be tested was added to an equal volume of either rat or human serum described above and maintained at 37° C. At 0, 1, 2, and 4 hours, 100 μL were removed and processed by solid phase extraction for HPLC analysis as follows. Serum samples were prepared for HPLC using C-18 Sep-Pak cartridges (1 mL cartridge with 100 mg of sorbent, Waters Corp., Milford, Mass.). One hundred μL of serum sample were added to an equal volume of 1% TFA and mixed for 30 seconds on a Vortex mixer. The sample was then applied to a C-18 Sep-Pak cartridge that had been conditioned by washing with 1 mL of methanol followed by 1 mL Milli-Q water. Weakly reed components were eluted by washing with 1 mL of 0. 1% TFA. The bound peptide was eluted with two volumes of 250 μL 80% acetonitrile/0.065% TFA.
# The peptides identified and purified after serum incubation as described above were subjected to N-terminal peptide sequencing performed on an Applied Biosystems Model 477A/120A sequencer and to electrospray ionization mass spectrometry (ESI/MS) performed using a VG Biotech Bio-Q Mass Spectrometer. In addition, the peptides identified and purified after serum incubation as described above were also tested for their anti-fungal activity in a radial diffusion bioassay with Candida albicans SLU-1 strain as described in Example 2.
# [3] = system: mouse RAW 264.7 cells incubated with E. coli O113 LPS; settings: RAW 264.7 cells with E. coli O113 LPS; concentration reversing LPS growth inhibition by 50%
# Method: (§1) An in vitro LPS neutralization screening assay for evaluation of Domain III derived peptides was developed (as described in co-owned and co-pending U.S. patent application Ser. No. 08/306,473) which provides both a measure of efficacy of each peptide (EC50) and of the toxicity/growth inhibition of each peptide (IC50).
# (§2) The cells were counted and their concentration adjusted to 2×10^5 cells/mL and 100 μL aliquots were added to each well of a 96-well microtitre plate. […] This incubation was performed in the absence or presence of peptides in varying concentrations between 25 ng/mL and 50 μg/mL. […] Cell proliferation was quantitatively measured by the addition of 1 μCi/well [^3H]-thymidine 5 hours after the time of initiation of the assay. After the 15-hour incubation, labeled cells were harvested onto glass fiber filters with a cell harvester (Inotech Biosystems, INB-384, Sample Processing and Filter Counting System, Lansing, Mich.).
# mouse RAW 264.7 cells = system: mouse RAW 264.7 cells
# Method: as §1, §2
# [4] = RAW 264.7 cell growth inhibited by 50%
Compound,C. albicans pmol/30 mm^2 zone [1],half-life at 0.5 mg/mL [2] [min],In Vitro LPS Neutralization EC50 [3],IC50 (toxicity/growth inhibition of peptide) (mouse RAW 264.7 cells; [4]),also measured
CC[C@H](C)[C@H](NC(=O)[C@H](CC(C)C)NC(=O)[C@H](Cc1ccc(N)cc1)NC(=O)CNC(=O)[C@@H](NC(=O)[C@H](CCCCN)NC(=O)[C@H](CO)NC(=O)[C@@H](N)CCCCN)C(C)C)C(=O)N[C@@H](CCC(N)=O)C(=O)N[C@@H](CC(C)C)C(=O)N[C@@H](Cc1ccccc1)C(=O)N[C@@H](Cc1c[nH]cn1)C(=O)N[C@@H](CCCCN)C(=O)N[C@@H](CCCCN)C(N)=O [XMP.133] (H-KSKVG[Phe(4-NH2)]LIQLFHKK-NH2),284 pmol/30 mm^2 zone,840,–,–,–
CC[C@H](C)[C@H](NC(=O)[C@H](CC(C)C)NC(=O)[C@H](Cc1c[nH]c2ccccc12)NC(=O)[C@H](CCCN)NC(=O)[C@@H](N)CCCN)C(=O)N[C@@H](CCC(N)=O)C(=O)N[C@@H](CC(C)C)C(=O)N[C@@H](CCCN)C(=O)N[C@@H](CCCN)C(N)=O [XMP.338],"1,194 pmol/30 mm^2 zone",282,–,–,–
CC[C@H](C)[C@H](NC(=O)[C@H](CC(C)C)NC(=O)[C@H](Cc1c[nH]c2ccccc12)NC(=O)[C@@H](N)CCCCN)C(=O)N[C@@H](CCN)C(=O)N[C@@H](CC(C)C)C(=O)N[C@@H](Cc1ccccc1)C(=O)N[C@@H](Cc1c[nH]cn1)C(=O)N[C@@H](CCCCN)C(=O)N[C@@H](CCCCN)C(N)=O [XMP.371] (H-KWLI[Dab]LFHKK-NH2),843 pmol/30 mm^2 zone,54,–,–,C. albicans pmol/30 mm^2 zone ([1]; listed as XMP.371P′): 523 pmol/30 mm^2 zone
CCCCCCCC(=O)N[C@@H](CCCCN)C(=O)N[C@@H](CCCCN)C(=O)N[C@@H](Cc1c[nH]c2ccccc12)C(=O)N[C@@H](C)C(=O)N[C@H](C(=O)N[C@@H](CCC(N)=O)C(=O)N[C@@H](CC(C)C)C(=O)N[C@@H](CCCCN)C(=O)N[C@@H](CCCCN)C(N)=O)[C@@H](C)CC [XMP.410] (Octanoyl-KKWAIQLKK-NH2),599 pmol/30 mm^2 zone,174,>25 µg/mL,NA (NA for IC50 means no evidence of decreased RAW cell growth at up to 50 μg/ml),–
Ac-PWLIQLFHKK-NH2 [XMP.356],550 pmol/30 mm^2 zone,54,–,–,–
H-KKKWAIQLKK-NH2 [XMP.377],146 pmol/30 mm^2 zone,108,–,–,–
H-KKKWLIQLKK-NH2 [XMP.348],284 pmol/30 mm^2 zone,330,–,–,–
H-KKLLLLLKK-NH2 [XMP.385],127 pmol/30 mm^2 zone,162,–,–,–
H-KKLQLLLKK-NH2 [XMP.381],391 pmol/30 mm^2 zone,48,–,–,–
H-KKQLLLLKK-NH2 [XMP.380P],–,–,NA (NA for EC50 means no evidence neutralization of LPS at up to 50 μg/ml),NA (NA for IC50 means no evidence of decreased RAW cell growth at up to 50 μg/ml),–
H-KKWLIQAKK-NH2 [XMP.345P],–,–,>50 µg/mL,NA (NA for IC50 means no evidence of decreased RAW cell growth at up to 50 μg/ml),–
H-KKWLIQLFHKK-NH2 [XMP.352P],–,–,2.34 ± 0.38 µg/mL,NA (NA for IC50 means no evidence of decreased RAW cell growth at up to 50 μg/ml),–
H-KKWLIQLFHKP-NH2 [XMP.358],550 pmol/30 mm^2 zone,96,–,–,–
H-KKWLIQLFKK-NH2 [XMP.351],385 pmol/30 mm^2 zone,24,–,–,–
H-KPWLIQLFHKK-NH2 [XMP.390P],–,–,3.97 ± 0.21 µg/mL,NA (NA for IC50 means no evidence of decreased RAW cell growth at up to 50 μg/ml),–
H-KSKVPWLIQLFHKK-NH2 [XMP.393P],–,–,>25 µg/mL,NA (NA for IC50 means no evidence of decreased RAW cell growth at up to 50 μg/ml),–

Compound,C. albicans pmol/30 mm^2 zone [1],half-life at 0.5 mg/mL [2] [min],In Vitro LPS Neutralization EC50 [3],IC50 (toxicity/growth inhibition of peptide) (mouse RAW 264.7 cells; [4]),also measured
H-KVKWLIQLF-NH2 [XMP.295P],–,–,3.69 ± 0.12 µg/mL,–,IC50 (toxicity/growth inhibition of peptide) (mouse RAW 264.7 cells): >25 µg/mL
H-KVKWLIQLFHK-NH2 [XMP.288P],–,–,0.87 ± 0.06 µg/mL,–,IC50 (toxicity/growth inhibition of peptide) (mouse RAW 264.7 cells): >25 µg/mL
H-KVPWLIQLFHKK-NH2 [XMP.392P],–,–,24.03 ± 2.67 µg/mL,NA (NA for IC50 means no evidence of decreased RAW cell growth at up to 50 μg/ml),–
H-KWLIQLFHKP-NH2 [XMP.357],204 pmol/30 mm^2 zone,48,–,–,–
H-PWLIQLFHKK-NH2 [XMP.355P],–,–,1.08 ± 0.05 µg/mL,NA (NA for IC50 means no evidence of decreased RAW cell growth at up to 50 μg/ml),–
H-RRWLIQLRR-NH2 [XMP.336P],–,–,NA (NA for EC50 means no evidence neutralization of LPS at up to 50 μg/ml),NA (NA for IC50 means no evidence of decreased RAW cell growth at up to 50 μg/ml),–
H-SKWAIQLKK-NH2 [XMP.409P],–,–,NA (NA for EC50 means no evidence neutralization of LPS at up to 50 μg/ml),NA (NA for IC50 means no evidence of decreased RAW cell growth at up to 50 μg/ml),–
KKKWAIQLKK-NH2 [XMP.377P],–,–,NA (NA for EC50 means no evidence neutralization of LPS at up to 50 μg/ml),NA (NA for IC50 means no evidence of decreased RAW cell growth at up to 50 μg/ml),–
KKLLLLQKK-NH2 [XMP.384P],–,–,NA (NA for EC50 means no evidence neutralization of LPS at up to 50 μg/ml),NA (NA for IC50 means no evidence of decreased RAW cell growth at up to 50 μg/ml),–
KKPWAIQLKK-NH2 (C-terminus assumed) [XMP.379P],–,–,NA (NA for EC50 means no evidence neutralization of LPS at up to 50 μg/ml),NA (NA for IC50 means no evidence of decreased RAW cell growth at up to 50 μg/ml),–
KKWAIQLKK-NH2 (C-terminus assumed) [XMP.344P],–,–,>25 µg/mL,NA (NA for IC50 means no evidence of decreased RAW cell growth at up to 50 μg/ml),–
KKWLIQLFKK-NH2 [XMP.351P],–,–,8.47 ± 0.71 µg/mL,NA (NA for IC50 means no evidence of decreased RAW cell growth at up to 50 μg/ml),–
KWAIQLFHKK-NH2 [XMP.386P],–,–,9.75 ± 1.02 µg/mL,NA (NA for IC50 means no evidence of decreased RAW cell growth at up to 50 μg/ml),–
PWAIQLFHKK-NH2 (C-terminus assumed) [XMP.387P],–,–,15.53 ± 2.18 µg/mL,NA (NA for IC50 means no evidence of decreased RAW cell growth at up to 50 μg/ml),–
XMP.341P ([pGlu][pGlu]WLIQL[pGlu][pGlu]; not fully specified),–,–,>50 µg⁻¹ mL⁻¹,NA/NA (NA for IC50 means no evidence of decreased RAW cell growth at up to 50 μg/ml),–
